Source: patent US6489098B1, “Means and methods for monitoring nucleoside reverse transcriptase inhibitor antiretroviral therapy and guiding therapeutic decisions in the treatment of HIV/AIDS” (ViroLogic, Inc., priority 1998, dated 2002)

Assays:
[1] = system: HIV-1 RT mutant resistance test vector A62V; assay: Phenotypic susceptibility assay, site directed RTV A62V; type: cell-based; details: RTV with A62V vs wild type RTV; 3 replicates
Method: (§1) Resistance tests were carried out with resistance test vectors using two host cell types. Resistance test vector viral particles were produced by a first host cell (the resistance test vector host cell) that was prepared by transfecting a packaging host cell with the resistance test vector and the packaging expression vector. The resistance test vector viral particles were then used to infect a second host cell (the target host cell) in which the expression of the indicator gene is measured.
(§2) The resistance test vectors containing a functional luciferase gene cassette were constructed and host cells were transfected with the resistance test vector DNA. The resistant test vectors contained patient-derived reverse transcriptase and protease sequences that were either susceptible or resistant to the antiretroviral agents, such as nucleoside reverse transcriptase inhibitors, non-nucleoside reverse transcriptase inhibitors and protease inhibitors. The resistance test vector viral particles produced by transfecting the resistance test vector DNA into host cells, either in the presence or absence of protease inhibitors, were used to infect target host cells grown either in the absence of NRTI or NNRTI or In the presence of increasing concentrations of the drug. The amount of luciferase activIty produced in infected target host cells in the presence of drug was compared to the amount of luciferase produced in infected target host cells in the absence of drug. Drug resistance was measured as the amount of drug required to inhibit by 50% the luciferase activity detected in the absence of drug (Inhibitory concentration 50%, IC50). The IC50 values were determined by plotting percent drug inhibition vs. log 10 drug concentration.
(§3) Host cells were seeded in 10-cm-diameter dishes and were transfected several days after plating with resistance test vector plasmid DNA and the envelope expression vector. Transfections were performed using a calcium-phosphate precipitation procedure. The cell culture media containing the DNA precipitate was replaced with fresh medium, from one to 24 hours, after transfection. Cell culture media containing resistance test vector viral particles was harvested one to four days after transfection and was passed through a […] filter before being stored at −80° C. HIV capsid protein (p24) levels in the harvested cell culture media were determined by an EIA method as described by the manufacturer (SIAC; Frederick, Md.). Before infection, target cells (293 and 293/T) were plated in cell culture media. Control infections were performed using cell culture media from mock transfections (no DNA) or transfections containing the resistance test vector plasmid DNA without the envelope expression plasmid. One to three or more days after infectIon the media was removed and cell lysis buffer (Promega) was added to each well. Cell lysates were assayed for luciferase activity (FIG. 3). The inhibitory effect of the drug was determined using the following equation:
(§4) % luciferase inhibition=1−(RLUluc[drug]÷RLUluc)×100
(§5) where RLUluc [drug] is the relative light unit of luciferase activity in infected cells in the presence of drug and RLUluc is the Relative Light Unit of luciferase activity in infected cells in the absence of drug. IC50 values were obtained from the sigmoidal curves that were generated from the data by plotting the percent inhibition of luciferase activity vs. the log 10 drug concentration. The drug inhibition curves are shown in (FIG. 3).
(§6) Genotypic changes that are observed to correlate with changes in phenotypic patterns of drug susceptibility are evaluated by construction of resistance test vectors containing the specific mutation on a defined, wild-type (drug susceptible) genetic background. Mutations may be incorporated alone and/or in combination with other known drug resistance mutations that are thought to modulate the susceptibility of HIV to a certain drug or class of drugs. […]

[2] = system: HIV-1 RT mutant resistance test vector T69SSA; assay: Phenotypic susceptibility assay, site directed RTV T69SSA; type: cell-based; details: RTV with T69SSA vs wild type RTV; 3 replicates
Method: as §1, §2, §3, §4, §5, §6

[3] = system: HIV-1 RT mutant resistance test vector A62V+T69SSA; assay: Phenotypic susceptibility assay, site directed RTV A62V+T69SSA; type: cell-based; details: RTV with 62 + 69 (A62V+T69SSA); 4 replicates
Method: as §1, §2, §3, §4, §5, §6

[4] = system: HIV-1 RT mutant resistance test vector A62V+T69SSA+V75I; assay: Phenotypic susceptibility assay, site directed RTV A62V+T69SSA+V75I; type: cell-based; details: RTV with 62 + 69 + 751 (A62V, T69SSA, V75I); 1 replicate
Method: as §1, §2, §3, §4, §5, §6

[5] = system: HIV-1 RT mutant resistance test vector 41 + 215 (M41L and T215Y); assay: Phenotypic susceptibility assay, site directed RTV 41 + 215; type: cell-based; details: RTV with 41 + 215; 4 replicates
Method: as §1, §2, §3, §4, §5, §6

[6] = system: HIV-1 RT mutant resistance test vector 41 + 210 + 215; assay: Phenotypic susceptibility assay, site directed RTV 41 + 210 + 215; type: cell-based; details: RTV with 41 + 210 + 215; 3 replicates
Method: as §1, §2, §3, §4, §5, §6

[7] = system: HIV-1 RT mutant resistance test vector M41L-T69SSA-T215Y-RTV; assay: Phenotypic susceptibility assay, site directed RTV M41L+T69SSA+T215Y; type: cell-based; details: for effect on susceptibility (words): RTV with M41L+T69SSA+T215Y
Method: as §1, §2, §3, §4, §5, §6

[8] = system: HIV-1 RT mutant resistance test vector 41 + 62 + 69 + 75M + 210 + 215; assay: Phenotypic susceptibility assay, site directed RTV 41 + 62 + 69 + 75M + 210 + 215; type: cell-based; details: RTV with 41 + 62 + 69 + 75M + 210 + 215; 1 replicate
Method: as §1, §2, §3, §4, §5, §6

[9] = system: HIV-1 RT mutant resistance test vector 41 + 62 + 69 + 75S + 210 + 215; assay: Phenotypic susceptibility assay, site directed RTV 41 + 62 + 69 + 75S + 210 + 215; type: cell-based; details: RTV with 41 + 62 + 69 + 75S + 210 + 215; 1 replicate
Method: as §1, §2, §3, §4, §5, §6

[10] = system: HIV-1 RT mutant resistance test vector 41 + 184 + 215; assay: Phenotypic susceptibility assay, site directed RTV 41 + 184 + 215; type: cell-based; details: RTV with 41 + 184 + 215; 3 replicates
Method: as §1, §2, §3, §4, §5, §6

[11] = system: HIV-1 RT mutant resistance test vector 41 + 69 + 184 + 215; assay: Phenotypic susceptibility assay, site directed RTV 41 + 69 + 184 + 215; type: cell-based; details: RTV with 41 + 69 + 184 + 215; 2 replicates
Method: as §1, §2, §3, §4, §5, §6

[12] = system: HIV-1 RT mutant resistance test vector M41L+A62V+T69SSA+M184V+T215Y; assay: Phenotypic susceptibility assay, site directed RTV M41L+A62V+T69SSA+M184V+T215Y; type: cell-based; details: RTV with 41 + 62 + 69 + 184 + 215; 2 replicates
Method: as §1, §2, §3, §4, §5, §6

[13] = system: ZDV-resistant HIV isolates; details: cited from earlier work
[14] = system: HIV-1 RT mutant resistance test vector A62V-T69SSA-T215Y-RTV; assay: Phenotypic susceptibility assay, site directed RTV A62V-T69SSA-T215Y; type: cell-based; details: RTV with 62 + 69 + 215 (A62V, T69SSA, T215Y); 1 replicate
Method: as §1
(§7) The resistance test vectors containing a functional luciferase gene cassette were constructed and host cells were transfected with the resistance test vector DNA. […] The IC50 values were determined by plotting percent drug inhibition vs. log 10 drug concentration.
(§8) Host cells were seeded in 10-cm-diameter dishes and were transfected several days after plating with resistance test vector plasmid DNA and the envelope expression vector. […] HIV capsid protein (p24) levels in the harvested cell culture media were determined by an EIA method as described by the manufacturer (SIAC; Frederick, Md.). […] The inhibitory effect of the drug was determined using the following equation: […]

[15] = system: HIV-1 RT mutant resistance test vector A62V-T69SSA-L74V-RTV; assay: Phenotypic susceptibility assay, site directed RTV A62V-T69SSA-L74V; type: cell-based; details: RTV with 62 + 69 + 74V; 1 replicate
Method: as §1, §2
as §3, with “Cell lysates were assayed for luciferase activity (FIG. 3).” left out
as §4
where RLUluc [drug] is the relative light unit of luciferase activity in infected cells in the presence of drug and RLUluc is the Relative Light Unit of luciferase activity in infected cells in the absence of drug. IC50 values were obtained from the sigmoidal curves that were generated from the data by plotting the percent inhibition of luciferase activity vs. the log 10 drug concentration. […]

[16] = system: HIV-1 RT mutant resistance test vector M41L-A62V-T69SSA-T215Y-RTV; assay: Phenotypic susceptibility assay, site directed RTV M41L+A62V+T69SSA+T215Y; type: cell-based; details: RTV with 41 + 62 + 69 + 215; 3 replicates
Method: as §1, §2
as §3, with “Cell lysates were assayed for luciferase activity (FIG. 3).” left out
as §4
where RLUluc [drug] is the relative light unit of luciferase activity in infected cells in the presence of drug and RLUluc is the Relative Light Unit of luciferase activity in infected cells in the absence of drug. IC50 values were obtained from the sigmoidal curves that were generated from the data by plotting the percent inhibition of luciferase activity vs. the log 10 drug concentration.
Mutations may be incorporated alone and/or in combination with other known drug resistance mutations that are thought to modulate the susceptibility of HIV to a certain drug or class of drugs. Mutations are introduced into the resistance test vector through any of the widely known methods for site-directed mutagenesis. In one embodiment of this invention the mega-primer PCR method for site-directed mutagenesis is used.

[17] = system: HIV-1 RT mutant resistance test vector M41L-T69SSA-T215Y-L210W-RTV; assay: Phenotypic susceptibility assay, site directed RTV M41L+T69SSA+L210W+T215Y; type: cell-based; details: RTV with 41 + 69 + 210 + 215; 3 replicates
Method: as §1
as §2, with “Drug resistance was measured as the amount of drug required to inhibit by 50% the luciferase activity detected in the absence of drug (Inhibitory concentration 50%, IC50).” left out
as §8

[18] = system: HIV-1 RT mutant resistance test vector M41L-T69SSA-T215Y-L210W-V75M-RTV; assay: Phenotypic susceptibility assay, site directed RTV M41L+T69SSA+V75M+L210W+T215Y; type: cell-based; details: RTV with 41 + 69 + 75M + 210 + 215; 1 replicate
Method: as §1, §7, §8

[19] = system: HIV-1 RT mutant resistance test vector M41L-A62V-T69SSA-T215Y-L210W-RTV; assay: Phenotypic susceptibility assay, site directed RTV M41L+A62V+T69SSA+L210W+T215Y; type: cell-based; details: RTV with 41 + 62 + 69 + 210 + 215; 3 replicates
Method: as §1
as §2, with “Drug resistance was measured as the amount of drug required to inhibit by 50% the luciferase activity detected in the absence of drug (Inhibitory concentration 50%, IC50).” left out
as §8

[20] = system: HIV with RT Lys65→Arg mutation; details: Lys65→Arg (K65R); cited from earlier work
[21] = system: HIV with RT K70E mutation; details: in vitro selection; cited from earlier work
[22] = system: AZT-resistant, 3TC-resistant and multi-drug resistant viruses; details: cited from earlier work

## Nc1ccn([C@@H]2CS[C@H](CO)O2)c(=O)n1 [3TC, lamivudine]
[1]
  Average fold reduction in susceptibility: 0.54 fold
[2]
  Average fold reduction in susceptibility: 3.20 fold
[3]
  Average fold reduction in susceptibility: 2.89 fold
[4]
  Average fold reduction in susceptibility: 4.08 fold
[5]
  Average fold reduction in susceptibility: 1.89 fold
[6]
  Average fold reduction in susceptibility: 2.14 fold
[7]; RTV with 41 + 69 + 215 (M41L, T69SSA, T215Y), 2 replicates
  Average fold reduction in susceptibility: 6.27 fold
[8]
  Average fold reduction in susceptibility: 18.41 fold
[9]
  Average fold reduction in susceptibility: 31.67 fold
[10]
  Average fold reduction in susceptibility: >110 fold
[11]
  Average fold reduction in susceptibility: >110 fold
[12]
  Average fold reduction in susceptibility: >110 fold

## [N-]=[N+]=N[C@H]1C[C@H](n2ccc(=O)[nH]c2=O)O[C@@H]1CO [AZU, 3′-azido-2′,3′-dideoxyuridine]
[13]
  cross-resistance of ZDV-resistant strains: cross-resistance

## CC(C)Nc1cccnc1N1CCN(C(=O)c2cc3cc(NS(C)(=O)=O)ccc3[nH]2)CC1 [DEL, delavirdine]
[14]
  Average fold reduction in susceptibility: 0.3 fold
[15]
  Average fold reduction in susceptibility: 0.4 fold
[7]
  effect on susceptibility (words): slight increase in susceptibility to DEL and NEV
[16]
  Average fold reduction in susceptibility: 0.2 fold
[17]
  Average fold reduction in susceptibility: 0.13 fold
[18]
  Average fold reduction in susceptibility: 0.25 fold
[19]
  Average fold reduction in susceptibility: 0.2 fold

## Cc1ccnc2c1NC(=O)c1cccnc1N2C1CC1 [NEV, nevirapine]
[14]
  Average fold reduction in susceptibility: 0.6 fold
[15]
  Average fold reduction in susceptibility: 0.3 fold
[7]
  effect on susceptibility (words): slight increase in susceptibility to DEL and NEV
[16]
  Average fold reduction in susceptibility: 0.8 fold
[17]
  Average fold reduction in susceptibility: 0.42 fold
[18]
  Average fold reduction in susceptibility: 0.5 fold
[19]
  Average fold reduction in susceptibility: 0.6 fold

## Nc1ncnc2c1ncn2CCOCP(=O)(O)O [adefovir]
[20]
  fold increase in IC50 / reduction in susceptibility: 16 fold
[21]
  fold reduction in susceptibility: 9 fold
[22]
  sensitivity of resistant viruses: remain sensitive to adefovir
